For orientation: EC50 means the concentration at which the effect is half-maximal.

The test addresses T1, APJ Receptor (Homo sapiens, UniProt P35414).
T1 sequence (P35414 1-380): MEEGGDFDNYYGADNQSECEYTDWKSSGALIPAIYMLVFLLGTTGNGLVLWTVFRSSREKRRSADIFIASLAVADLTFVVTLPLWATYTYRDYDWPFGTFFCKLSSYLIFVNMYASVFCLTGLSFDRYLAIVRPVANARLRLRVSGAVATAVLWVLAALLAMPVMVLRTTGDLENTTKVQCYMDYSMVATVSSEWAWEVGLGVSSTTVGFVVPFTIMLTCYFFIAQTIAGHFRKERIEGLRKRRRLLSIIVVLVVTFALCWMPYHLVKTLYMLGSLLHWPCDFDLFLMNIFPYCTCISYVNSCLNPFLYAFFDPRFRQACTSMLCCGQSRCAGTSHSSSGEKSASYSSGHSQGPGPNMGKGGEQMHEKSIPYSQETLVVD
Description: APJ cAMP assay (DiscoverX enzyme fragment complementation; inhibition of forskolin-stimulated cAMP). It is filed as cell-based. As to conditions: CHO-K1 cell line stably expressing the APJ Receptor; EC80 forskolin; 30 minutes at 37° C.; read-out: Potency Range (APJ cAMP EC50). From the text: Activation of APJ receptor is known to inhibit forskolin-stimulated cyclic AMP (cAMP) production in cells in a pertussis toxin-sensitive manner which indicates primary coupling to the GαI subunit of the G protein heterotrimeric complex. In addition to signaling through G protein and inhibition of cAMP, APJ receptor activation also results in β-arrestin recruitment, receptor internalization and activation of extracellular-regulated kinases (ERKs).
In order to optimize functional activity directed toward Gi coupling we utilized a CHO-K 1 cell line developed by DiscoverX stably expressing the APJ Receptor. Cells expressing APJR receptor were plated in a 384-well microtiter plates and incubated overnight at 37° C. with 5% CO2 to allow the cells to attach and grow. Media was then aspirated from the cells and replaced with 15 uL 2:1 Hanks Balanced Salt Solution (HBSS)/10 mM Hepes:cAMP XS+Ab reagent. Five microliters (5 uL) of previously generated compound sample stocks at 4× final concentration in assay buffer containing 4× EC80 forskolin were then added to the cells and allowed to incubate at 37° C. for 30 minutes.
After incubation the assay signal was generated using a technology termed enzyme fragment complementation (EFC). In EFC the enzyme B-galactosidase is split into two complementary portions (EA and ED). The fragment ED is fused to cAMP and in the assay format competes with endogenous cAMP for binding to a cAMP specific antibody. Activated B-Gal is formed when exogenous EA fragment binds to free ED-cAMP (not bound to cAMP specific antibody). Activated enzyme levels are detected through conversion of B-gal chemiluminescent substrate which generates a detectable luminescence signal and read on standard microtiter plate.
The methodology for detection of cAMP using EFC requires incubation with 20 uL of cAMP XS+ED/CL lysis cocktail for one hour followed by incubation with 20 uL cAMP XS+EA reagent for three hours at room temperature. Microplates were read following signal generation with a PerkinElmer Envision instrument utilizing chemiluminescent signal detection.
Compound activity was analyzed using CBIS data analysis suite (ChemInnovation, CA). Percentage activity was calculated using the following formula: % Activity=100%×(1−(mean RLU of test sample−mean RLU of Max control)/(mean RLU of vehicle control−mean RLU of Max control))
(Changes in cAMP serve as a functional read-out for many G protein-coupled receptors.)
In the case of `CCOc1cccc(-c2nc3nnc(NS(=O)(=O)Cc4ccc(Cl)cn4)cc3n2-c2c(OC)cccc2OC)n1` [Example 123, 1-(5-Chloropyridin-2-yl)-N-(7-(2,6-dimethoxyphenyl)-8-(6-ethoxypyridin-2-yl)-7H-imidazo[4,5-c]pyridazinyl)methanesulfonamide], the EC50 was below 1 nM.

For `COc1cccc(-c2nc3ncc(NS(=O)(=O)c4ncccn4)nc3n2-c2c(OC)cccc2OC)n1` [Example 53, N-(1-(2,6-dimethoxyphenyl)-2-(6-methoxypyridin-2-yl)-1H-imidazo[4,5-b]pyrazin-6-yl)pyrimidine-2-sulfonamide], the EC50 fell in the range of 1 to 100 nM.

As for `CCOc1cccc(-c2nc3ncc(NS(=O)(=O)C[C@H]4CCN(C)C(=O)C4)nc3n2-c2c(OC)cccc2OC)n1` [Example 71, (S)—N-(1-(2,6-Dimethoxyphenyl)-2-(6-ethoxypyridin-2-yl)-1H-imidazo[4,5-b]pyrazin-6-yl)-1-(1-methyl-2-oxopiperidin-4-yl)methanesulfonamide], the concentration giving a half-maximal response (EC50) is below 1 nM.

Consider `CCOc1cccc(-c2nc3ncc(C#Cc4ccccc4)nc3n2-c2c(OC)cccc2OC)n1` [Example 6, 1-(2,6-dimethoxyphenyl)-2-(6-ethoxypyridin-2-yl)-6-(phenylethynyl)-1H-imidazo[4,5-b]pyrazine], for which the EC50 was in the range of 100 to 10000 nM.

For `CCOc1cccc(-c2nc3nnc(NS(=O)(=O)Cc4ccc(C)cn4)cc3n2-c2c(OC)cccc2OC)n1` [Example 124, N-(7-(2,6-Dimethoxyphenyl)-8-(6-ethoxypyridin-2-yl)-7H-imidazo[4,5-c]pyridazinyl)-1-(5-methylpyridin-2-yl)methanesulfonamide], the EC50 is below 1 nM.

As to `CCOc1cccc(-c2nc3ncc(NS(=O)(=O)[C@H]4C[C@H](O)C4)nc3n2-c2c(OC)cccc2OC)n1` [Example 34, trans-N-(1-(2,6-dimethoxyphenyl)-2-(6-ethoxypyridin-2-yl)-1H-imidazo[4,5-b]pyrazin-6-yl)-3-hydroxycyclobutane-1-sulfonamide], the EC50 lay within 1 to 100 nM.

`CCOc1cccc(-c2nc3ncc(NS(=O)(=O)N(C)C)nc3n2-c2c(OC)cccc2OC)n1` [Example 76, N-(1-(2,6-dimethoxyphenyl)-2-(6-ethoxypyridin-2-yl)-1H-imidazo[4,5-b]pyrazin-6-yl)-N′,N′-dimethylsulfamide]: the EC50 is 1 to 100 nM.

For `CCOc1cccc(-c2nc3nc(CO)c(NS(C)(=O)=O)nc3n2-c2c(OC)cccc2OC)n1` [Example 140, N-(1-(2,6-Dimethoxyphenyl)-2-(6-ethoxypyridin-2-yl)-5-(hydroxymethyl)-1H-imidazo[4,5-b]pyrazin-6-yl)methanesulfonamide], the EC50 was in the range of 1 to 100 nM.

Turning to `CCOc1cccc(-c2nc3ncc(NS(C)(=O)=O)nc3n2-c2ncccc2OC)n1` [Example 49, N-(2-(6-ethoxypyridin-2-yl)-1-(3-methoxypyridin-2-yl)-1H-imidazo[4,5-b]pyrazin-6-yl)methanesulfonamide], the EC50 lay in the range of 100 to 10000 nM.

As for `CCOc1cccc(-c2nc3ncc(NS(=O)(=O)c4cccnc4)nc3n2-c2c(OC)cccc2OC)n1` [Example 24, N-(1-(2,6-dimethoxyphenyl)-2-(6-ethoxypyridin-2-yl)-1H-imidazo[4,5-b]pyrazin-6-yl)pyridine-3-sulfonamide], the EC50 lay in the range of 1 to 100 nM.

With `CCOc1cccc(-c2nc3nc(Cl)c(NS(=O)(=O)N4CCC(O)CC4)nc3n2-c2c(OC)cccc2OC)n1` [Example 116, N-(5-Chloro-1-(2,6-dimethoxyphenyl)-2-(6-ethoxypyridin-2-yl)-1H-imidazo[4,5-b]pyrazin-6-yl)-4-hydroxypiperidine-1-sulfonamide], the EC50 was 1 to 100 nM.

Regarding `COc1cccc(OC)c1-n1c(-c2ccc(C)o2)nc2nnc(NS(C)(=O)=O)cc21` [Example 130, N-(7-(2,6-Dimethoxyphenyl)-8-(5-methylfuran-2-yl)-7H-imidazo[4,5-c]pyridazinyl)methanesulfonamide], the EC50 lay in the range of 100 to 10000 nM.

Regarding `CCOc1cccc(-c2nc3ncc(N(Cc4ccccc4)Cc4ccccc4)nc3n2-c2c(OC)cccc2OC)n1` [Example 11, N,N-dibenzyl-1-(2,6-dimethoxyphenyl)-2-(6-ethoxypyridin-2-yl)-1H-imidazo[4,5-b]pyrazin-6-amine], the EC50 is 1 to 100 nM.

Consider `CCOc1cccc(-c2nc3nc(NS(=O)(=O)C4CC4)cnc3n2-c2c(OC)cccc2OC)n1` [Example 92, N-(1-(2,6-Dimethoxyphenyl)-2-(6-ethoxypyridin-2-yl)-1H-imidazo[4,5-b]pyrazin-5-yl)cyclopropanesulfonamide], for which the EC50 lay in the range of 1 to 100 nM.

For `CCOc1cccc(-c2nc3nc(C)c(NS(C)(=O)=O)nc3n2-c2c(OC)cccc2OC)n1` [Example 87, N-(1-(2,6-Dimethoxyphenyl)-2-(6-ethoxypyridin-2-yl)-5-methyl-1H-imidazo[4,5-b]pyrazin-6-yl)methanesulfonamide], the EC50 lay within 1 to 100 nM.

As to `CCOc1cccc(-c2nc3ncc(NS(=O)(=O)N4CCNCC4)nc3n2-c2c(OC)cccc2OC)n1` [Example 74, N-(1-(2,6-Dimethoxyphenyl)-2-(6-ethoxypyridin-2-yl)-1H-imidazo[4,5-b]pyrazin-6-yl)piperazine-1-sulfonamide], the EC50 lay within 1 to 100 nM.

`CCOc1cccc(-c2nc3nc(CC4CC4)c(NS(C)(=O)=O)nc3n2-c2c(OC)cccc2OC)n1` [Example 65, N-(5-(cyclopropylmethyl)-1-(2,6-dimethoxyphenyl)-2-(6-ethoxypyridin-2-yl)-1H-imidazo[4,5-b]pyrazin-6-yl)methanesulfonamide]: the EC50 is below 1 nM.

In the case of `CCOc1cccc(-c2nc3nc(Cl)c(NS(=O)(=O)c4ccc(F)cn4)nc3n2-c2c(OC)cccc2OC)n1` [Example 99, N-(5-Chloro-1-(2,6-dimethoxyphenyl)-2-(6-ethoxypyridin-2-yl)-1H-imidazo[4,5-b]pyrazin-6-yl)-5-fluoropyridine-2-sulfonamide], the 50% effective concentration (EC50) was in the range of 1 to 100 nM.

For `CCOc1cccc(-c2nc3ncc(NS(=O)(=O)N4CCCCC4)nc3n2-c2c(OC)cccc2OC)n1` [Example 75, N-(1-(2,6-dimethoxyphenyl)-2-(6-ethoxypyridin-2-yl)-1H-imidazo[4,5-b]pyrazin-6-yl)piperidine-1-sulfonamide], the EC50 was below 1 nM.

In the case of `CCOc1cccc(-c2nc3ncc(NS(=O)(=O)C4COC4)nc3n2-c2c(OC)cccc2OC)n1` [Example 30, N-(1-(2,6-dimethoxyphenyl)-2-(6-ethoxypyridin-2-yl)-1H-imidazo[4,5-b]pyrazin-6-yl)oxetane-3-sulfonamide], the EC50 lay within 1 to 100 nM.

As to `CCOc1cccc(-c2nc3nc(N4CC(O)C4)c(NS(C)(=O)=O)nc3n2-c2c(OC)cccc2OC)n1` [Example 136, N-(1-(2,6-Dimethoxyphenyl)-2-(6-ethoxypyridin-2-yl)-5-(3-hydroxyazetidin-1-yl)-1H-imidazo[4,5-b]pyrazin-6-yl)methanesulfonamide], the EC50 was 100 to 10000 nM.

Take `CCOc1cccc(-c2nc3ncc(NS(C)(=O)=O)nc3n2-c2c(OC)ccnc2OC)n1` (atropisomer, axis not shown) [Example 84, N-(1-(2,4-Dimethoxypyridin-3-yl)-2-(6-ethoxypyridin-2-yl)-1H-imidazo[4,5-b]pyrazin-6-yl)methanesulfonamide]: the EC50 lay within 1 to 100 nM.

In the case of `CCOc1cccc(-c2nc3nc(N)c(NS(C)(=O)=O)nc3n2-c2c(OC)cccc2OC)n1` [Example 145, N-(5-Amino-1-(2,6-dimethoxyphenyl)-2-(6-ethoxypyridin-2-yl)-1H-imidazo[4,5-b]pyrazin-6-yl)methanesulfonamide], the EC50 was 1 to 100 nM.

`CCOc1cccc(-c2nc3ncc(NC(=O)Cc4ccccc4)nc3n2-c2c(OC)cccc2OC)n1` [Example 14, N-(1-(2,6-dimethoxyphenyl)-2-(6-ethoxypyridin-2-yl)-1H-imidazo[4,5-b]pyrazin-6-yl)-2-phenylacetamide]: the EC50 lay in the range of 1 to 100 nM.

Take `CCOc1cccc(-c2nc3nc(Cl)c(NS(=O)(=O)N(C)C4CC4)nc3n2-c2c(OC)cccc2OC)n1` [Example 112, N-(5-Chloro-1-(2,6-dimethoxyphenyl)-2-(6-ethoxypyridin-2-yl)-1H-imidazo[4,5-b]pyrazin-6-yl)-N′-methyl-N′-cyclopropylsulfamide]: the EC50 is below 1 nM.
